Reference: US10189837B2, “Crystalline (8S,9R)-5-fluoro-8-(4-fluorophenyl)-9-(1-methyl-1H-1,2,4-triazol-5-yl)-8,9-dihydro-2H-pyrido[4,3,2-de]phthalazin-3(7H)-one tosylate salt” (Medivation Technologies, LLC, priority 2010, dated 2019)
pIC50: −log10 of the molar value.

Columns and labels:
Assay type in all cases: cell-based
[1] = test system: Oral squamaous carcinoma HSC-4 cells; assay: Single-agent cytotoxicity assay in head & neck tumor cell lines; settings: Homo sapiens
Description: (§1) Oral squamaous carcinoma HSC-3 and HSC-4 cells were cultured in MEM+10% FBS. Oral squamaous carcinoma CAL 27 was cultured in DMEM+10% FBS. Basaloid squamous cell line PE/CA-PJ34 (clone 12) was cultured in IMDM+10% FBS. All cell lines were maintained in their corresponding growth media containing 100 U/mL Penicillin and 100 μg/mL Streptomycin in 37° C. incubator with 5% CO2 till ready for assay. According to individual cell line growth rate, cells were seeded at different densities as indicated in each graph in 96-well plates in the time of assay. Cells were incubated for overnight at 37° C. before treated with their corresponding growth media containing free base in 0.1% DMSO at various concentrations ranging from 5000 nM to 0.064 nM. 0.1% DMSO was used as mock treatment or control. Media and compound were replenished every 5 days. After incubation for 7, 10, 11 or 13 days (as indicated in each graph), cell survival was measured by CellTiter Glo (Promega) and cell survival fraction was calculated relative to control. GraphPad Prism5 software was used to plot data and calculate IC50 values.

[2] = test system: Oral squamaous carcinoma HSC-3 cells; assay: as above; settings: Homo sapiens
Description: as §1

[3] = test system: Oral squamaous carcinoma CAL 27; assay: as above; settings: Homo sapiens
Description: as §1

[4] = test system: Basaloid squamous cell line PE/CA-PJ34 (clone 12); assay: as above
Description: as §1

[5] = test system: Mantle cell lymphoma cell line Z138; assay: Single-agent cytotoxicity assay, CellTiter Glo cell survival; settings: Homo sapiens, Z-138, 96 h, 4-day assay
Description: (§2) Mantle cell lymphoma cell line Granta-519 was cultured in Dulbecco's MEM (4.5 g/L glucose) containing 10% FBS, 2 mM L-glutamine, 100 U/mL Penicillin and 100 μg/mL Streptomycin. Mantle cell lymphoma cell line Jeko-1 was cultured in RPMI1640 containing 10% FBS, 100 U/mL Penicillin and 100 μg/mL Streptomycin. Mantle cell lymphoma cell line Z138 was cultured in IMDM containing 10% horse serum, 100 U/mL Penicillin and 100 μg/mL Streptomycin. All cell lines were maintained in 37° C. incubator with 5% CO2 till ready for assay. Granta-519, Jeko-1 and Z138 cells were seeded at either 1000 or 5000 cells/well in 96-well plates. Cells were incubated for overnight at 37° C. before treated with their corresponding growth media containing free base in 0.1% DMSO at various concentrations ranging from 1000 nM to 0.32 nM. 0.1% DMSO was used as mock treatment or control. After 4 days incubation, cell survival was measured by CellTiter Glo (Promega) and cell survival fraction was calculated relative to control. GraphPad Prism5 software was used to plot data and calculate IC50 values.

[6] = test system: Mantle cell lymphoma cell line Granta-519; assay: as above; settings: Homo sapiens, Granta-519, 96 h, 4-day assay
Description: as §2

[7] = test system: Mantle cell lymphoma cell line Jeko-1; assay: as above; settings: Homo sapiens, JeKo-1, 96 h, 4-day assay
Description: as §2

## Cn1ncnc1[C@H]1c2n[nH]c(=O)c3cc(F)cc(c23)N[C@@H]1c1ccc(F)cc1 [free base, (8S,9R)-5-fluoro-8-(4-fluorophenyl)-9-(1-methyl-1H-1,2,4-triazol-5-yl)-8,9-dihydro-2H-pyrido[4,3,2-de]phthalazin-3(7H)-one]
[1]; 168 h, HSC-4, 7 days, 100/well
  pIC50: 7.24
[1]; 264 h, HSC-4, 11 days, 200/well
  pIC50: 7.31
[2]; 168 h, HSC-3, 7 days, 1500/well
  pIC50: 6.01
[2]; 264 h, HSC-3, 11 days, 750/well
  pIC50: 6.03
[3]; CAL-27, 168 h, CAL27, 7 days, 800/well
  pIC50: 7.64
[3]; CAL-27, 264 h, CAL27, 11 days, 400/well
  pIC50: 7.82
[4]; 240 h, PE/CA-PJ34 C12, 10 days, 2000/well
  pIC50: 7.87
[4]; 312 h, PE/CA-PJ34 C12, 13 days, 1000/well
  pIC50: 7.74
[5]; Z-138, 1000/well
  pIC50: 7.98
[5]; Z-138, 5000/well
  pIC50: 7.23
[6]; Granta-519, 1000/well
  pIC50: 8.77
[6]; Granta-519, 5000/well
  pIC50: 8.05
[7]; Jeko-1, 1000/well
  pIC50: 7.19
[7]; Jeko-1, 5000/well
  pIC50: 6.45
